# In patent US6072057A, “1H-4(5)-cyclo-substituted imidazole derivatives as histamine H3 receptor agents” (Gliatech Inc., priority 1998, dated 2000):
# Where two headings read alike, the source gives them in different places.
# Tests used:
# Histamine H3 receptor = target: T1, Histamine H3 receptor (Rattus norvegicus, UniProt Q9QYN8); experiment: In Vitro Histamine H3 Receptor Binding Analysis ([3H]-Nα-methylhistamine, rat cortical membranes); settings: pH 7.4, 25° C., 40 minutes
# T1 construct: Rat cortices were mechanically homogenized; from tissue; host or cells: rat cerebral cortex membranes
# Description: Histamine H3 receptor affinity was determined in rat cortical membranes using the H3 selective agonist ligand, [^3 H]-N^α -methylhistamine (78.9 Ci/mmole, DuPont NEN Research Products, Boston, Mass.) according to the method of West et al., (1990) Mol. Pharmacol. 38: 610-613 with modifications. Briefly, animals were sacrificed by decapitation and the cerebral cortex was rapidly removed. Rat cortices were mechanically homogenized with an Omni 1000 motor driven homogenizer in 10 volumes (wt/vol) of Krebs-Ringers Hepes buffer (pH 7.4) containing the following protease inhibitors; EDTA (10 mM), PMSF (0.1 mM), chymostatin (0.2 mg/50 mL) and leupeptin (0.2 mg/50 mL). The homogenate was centrifuged in a Sorvall at ~40,000× g for 30 min. […] Protein concentrations were determined by Coomassie Plus Protein Assay (Pierce, Rockford, Ill.).
# The binding assay was carried out in polypropylene tubes in a total volume of 0.4 ml of 50 mM Na^+ Phosphate buffer (pH 7.4), containing 150-200 μg of tissue protein, 0.8-1.2 nM [^3 H]-N^α -methylhistamine and 0.3 to 10,000 nM GT-2016. […] Filters were transferred to polyethylene minivials and counted in 3.5 ml of scintillation fluid (Ecolume, ICN Biomedicals, Inc.). […] Saturation and competition experiments were analyzed with the ReceptorFit saturation and competition curve fittingprograms (Lundon Software, Inc., Cleveland, OH).
# H3 histamine receptor = settings: tested as a racemic mixture; cited from earlier work
# [1] = intraventricular, rabbits; cited from earlier work
# [2] = intraventricular, saline and pentobarbital-treated rats; cited from earlier work
# H3 receptor [3] = settings: cited from earlier work
# H3 receptor [4] = settings: cat (Lin et al., 1990); cited from earlier work
# H3 receptor [5] = settings: rats; cited from earlier work
# [6] = tested on: synthesis and release of histamine; settings: in vivo studies; cited from earlier work
# T1 sequence (Q9QYN8 whole entry): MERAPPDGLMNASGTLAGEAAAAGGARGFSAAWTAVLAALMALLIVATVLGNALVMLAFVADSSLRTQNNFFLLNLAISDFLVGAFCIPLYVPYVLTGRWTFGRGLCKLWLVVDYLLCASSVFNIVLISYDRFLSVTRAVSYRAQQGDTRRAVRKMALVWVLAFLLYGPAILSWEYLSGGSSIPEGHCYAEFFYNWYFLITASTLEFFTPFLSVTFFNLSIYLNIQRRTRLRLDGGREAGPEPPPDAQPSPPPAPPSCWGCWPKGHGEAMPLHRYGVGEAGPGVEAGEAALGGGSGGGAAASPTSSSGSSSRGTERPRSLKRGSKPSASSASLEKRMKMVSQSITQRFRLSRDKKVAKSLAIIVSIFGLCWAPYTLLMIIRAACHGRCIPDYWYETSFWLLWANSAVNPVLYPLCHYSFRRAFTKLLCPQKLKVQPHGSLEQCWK
smiles,measurement,setting,value
NC1CCC(c2c[nH]cn2)CC1 (stereo not drawn),Ki,Histamine H3 receptor,20 nM
NC1CC1c1c[nH]cn1 (racemic) [2-(4-imidazoyl)-cyclopropylamine],H3 histamine receptor agonist activity,H3 histamine receptor,moderate
NCCc1c[nH]cn1 [histamine],arousal EEG pattern,[1],induces the appearances of an arousal EEG pattern
same,"spontaneous locomotor activity, grooming and exploratory behavior",[2],increased
same,stimulation of the H3 autoreceptor,H3 receptor [3],capable of stimulating this autoreceptor
S=C(NC1CCCCC1)N1CCC(c2cnc[nH]2)CC1 [thioperamide],wakefulness,H3 receptor [4],enhanced wakefulness in a dose-dependent fashion
same,slow wave and REM sleep,H3 receptor [5],decrease slow wave and REM sleep
same,wakefulness,H3 receptor [5],increase wakefulness
same,synthesis and release of histamine,[6],can increase
